According to the Deep4Chem optical property database:
Blank lines part the entries; values can stand above or below the compound they belong to.

Test: solvent given as SMILES

Structure (SMILES): CC1(C)c2ccccc2N(c2ccc(-c3nnc(-c4ccc(N5c6ccccc6C(C)(C)c6ccccc65)cc4)o3)cc2)c2ccccc21
emission maximum (in Cc1ccccc1): 461 nm | emission maximum (in O=P(c1ccccc1)(c1ccccc1)c1ccccc1Oc1ccccc1P(=O)(c1ccccc1)c1ccccc1): 472 nm

Structure (SMILES): Oc1cccc2ccccc12
emission maximum (in C1CCCCC1): 344.23 nm

Structure (SMILES): COc1ccc(/C=C/c2ccc(/C=C/c3cc[n+]4ccc(/C=C/c5ccc(/C=C/c6ccc(OC)cc6)cc5)cc4c3)cc2)cc1
emission maximum (in CO): 620 nm

Structure (SMILES): CCN1C(=CC2=C([O-])C(=CC3=[N+](CC)c4ccccc4C3(C)C)C2=O)C(C)(C)c2ccccc21
emission maximum (in CO): 644 nm | emission maximum (in ClC(Cl)Cl): 645 nm

Structure (SMILES): CN(C)c1ccc(C=C/C=C/C=C/c2ccc(C#N)cc2)cc1
emission maximum (in C1CCOC1): 609 nm | emission maximum (in CC#N): 658 nm | emission maximum (in CCCC#N): 640 nm | emission maximum (in CCCCCC): 467 nm | emission maximum (in CCCCOCCCC): 541 nm | emission maximum (in CCO): 637 nm | emission maximum (in CCOCC): 567 nm

Structure (SMILES): Cc1ccc(C2=C3C=CC4=[N+]3[P-](=O)(=O)n3c2ccc3-c2ccc([nH]2)/C(c2ccc(C)cc2)=c2/cc/c(o2)=C(\c2ccc(C)cc2)c2ccc4[nH]2)cc1
emission maximum (in ClC(Cl)Cl): 714 nm

Structure (SMILES): CCCC(=O)c1c2c(c(C(=O)CCC)c3c1OC(CC(=O)OC)(C(=O)O)O3)OCO2
emission maximum (in CC#N): 542 nm | emission maximum (in CCO): 603 nm | emission maximum (in CO): 614 nm | emission maximum (in ClCCl): 530 nm | emission maximum (in O): 637 nm

Structure (SMILES): Nc1cc2nc3cc(Cl)c(Cl)cc3nc2cc1N
emission maximum (in CCO): 549 nm

Structure (SMILES): Cc1c(C)c(B(c2c(C)c(C)c(C#N)c(C)c2C)c2c(C)c(C)c(N3c4ccccc4Oc4ccccc43)c(C)c2C)c(C)c(C)c1C#N
emission maximum (in c1ccc([Si](c2ccccc2)(c2ccc(-n3c4ccccc4c4ccccc43)cc2)c2ccc(-n3c4ccccc4c4ccccc43)cc2)cc1): 533 nm

Structure (SMILES): CCN(CC)c1ccc2cc(C#N)c(=N)oc2c1
emission maximum (in ClCCl): 460 nm

Structure (SMILES): CC(C)(C)OC(=O)NCC(=O)OCc1ccc2c3cccc4cccc(c5cccc1c52)c43
emission maximum (in CCO): 446 nm

Structure (SMILES): CC1=CC(C)=[N+]2C1=C(c1ccc(-c3c4ccccc4c(-c4ccccc4)c4ccccc34)cc1)c1c(C)cc(C)n1[B-]2(F)F
emission maximum (in CC#N): 508 nm | emission maximum (in CCCCCC): 511 nm | emission maximum (in CCO): 510 nm | emission maximum (in CN(C)C=O): 510 nm | emission maximum (in Cc1ccccc1): 515 nm | emission maximum (in ClCCl): 512 nm

Structure (SMILES): CC1(C)c2ccccc2N(c2ccc3c(c2)c2cc(N4c5ccccc5C(C)(C)c5ccccc54)cc4c5ccccc5n3c42)c2ccccc21
emission maximum (in C1CCCCC1): 427.57 nm | emission maximum (in C1CCOC1): 481.94 nm | emission maximum (in Cc1ccccc1): 449 nm

Structure (SMILES): CCCCCCN1C(=O)c2cccc3c(-c4scc5c4OCCO5)ccc(c23)C1=O
emission maximum (in ClC(Cl)Cl): 484 nm

Structure (SMILES): N#Cc1ccc(-c2ccc3c(c2)c2cc(-c4ccc(C#N)cc4)ccc2c2c3nc(-c3ccc(N(c4ccccc4)c4ccccc4)cc3)n2-c2ccccc2)cc1
emission maximum (in C1CCOC1): 449.94 nm | emission maximum (in CC#N): 479.9 nm | emission maximum (in CCCCCC): 419.62 nm | emission maximum (in CCOCC): 439.6 nm

Structure (SMILES): CC(C)n1c2cc(O)c(F)cc2c(=O)c2cc(F)c(O)cc21
emission maximum (in CCO): 438 nm

Structure (SMILES): C[Si](C)(C)c1ccc(C#N)c2ccccc12
emission maximum (in C1CCCCC1): 333 nm

Structure (SMILES): CC[Si](C)(C)c1cc2ccc3cccc4ccc(c1C(=O)NC(C)(C)C)c2c34
emission maximum (in ClC(Cl)Cl): 383 nm

Structure (SMILES): CCC1=C(C)C2=C(C)c3c(C)c(CC)c(C)n3[B-](F)(F)[N+]2=C1C
emission maximum (in C1CCCCC1): 537.2 nm | emission maximum (in C1CCOC1): 534 nm | emission maximum (in C1COCCO1): 533.2 nm | emission maximum (in CC#N): 530.4 nm | emission maximum (in CC(C)=O): 532 nm | emission maximum (in CC(C)O): 534 nm | emission maximum (in CCC(C)C): 534.4 nm | emission maximum (in CCCCCC): 533.6 nm | emission maximum (in CCCCCCCC): 535.2 nm | emission maximum (in CCCCCCCCCCO): 534.8 nm | emission maximum (in CCCCCCCCO): 534.4 nm | emission maximum (in CCCCCCO): 534.8 nm | emission maximum (in CCCCO): 534.4 nm | emission maximum (in CCCO): 534 nm | emission maximum (in CCO): 532.4 nm | emission maximum (in CCOC(C)=O): 531.6 nm | emission maximum (in CCOCC): 532.8 nm | emission maximum (in CN1CCCC1=O): 533.2 nm | emission maximum (in CN(C)C=O): 532.8 nm | emission maximum (in CO): 531.6 nm | emission maximum (in Cc1ccccc1): 536.4 nm | emission maximum (in ClCCl): 534 nm | emission maximum (in OCC(F)(F)F): 535.2 nm | emission maximum (in OCCO): 536.4 nm | emission maximum (in OCCOc1ccccc1): 536.8 nm | emission maximum (in c1ccccc1): 536.4 nm

Structure (SMILES): O=Cc1nc2ccc(C#Cc3ccc(N(c4ccccc4)c4ccccc4)cc3)cc2s1
emission maximum (in Cc1ccccc1): 519 nm

Structure (SMILES): F[B-]1(F)n2c(c(-c3ccccc3)c(-c3ccccc3)c2-c2ccccc2)C(c2ccccc2)=C2C(c3ccccc3)=C(c3ccccc3)C(c3ccccc3)=[N+]21
emission maximum (in C1CCOC1): 613 nm

Structure (SMILES): CC(=O)c1c(N[C@@H](CC(C)C)C(=O)O)c2ccc(N(C)C)cc2oc1=O
emission maximum (in ClCCl): 446 nm

Structure (SMILES): N#C[Se]CCCCCOc1ccc2ccc(=O)oc2c1
emission maximum (in C1CCCCC1): 378 nm | emission maximum (in C1CCOC1): 391 nm | emission maximum (in C1COCCO1): 386 nm | emission maximum (in CC#N): 387 nm | emission maximum (in CCCCCCC): 391 nm | emission maximum (in CCO): 386 nm | emission maximum (in CN(C)C=O): 396 nm | emission maximum (in CO): 391 nm | emission maximum (in O): 397 nm | emission maximum (in OCCO): 392 nm

Structure (SMILES): CCCCCCn1c(=O)c2c3[nH]c4ccccc4oc3c3c(=O)n(CCCCCC)c(=O)c3c2c1=O
emission maximum (in ClCCl): 560 nm

Structure (SMILES): NNC(=O)c1ccc(/C=C/c2ccc(C(=O)NN)cc2)cc1
emission maximum (in CN(C)C=O): 395 nm

Structure (SMILES): Nc1ncc2nc[nH]c2n1
emission maximum (in O): 380 nm

Structure (SMILES): COc1ccccc1C1=NC2c3cccc4cccc(c34)C2N1c1ccccc1 (configuration not stated)
emission maximum (in Cc1ccccc1): 379 nm

Structure (SMILES): COC(C)CC1=N/C(=C\c2cccc(N(C)C)c2)C(=O)N1C (configuration not stated)
emission maximum (in C1CCOC1): 569 nm | emission maximum (in CC#N): 632 nm | emission maximum (in CCCCCC): 495 nm

Structure (SMILES): N#Cc1cc2ccccc2[nH]1
emission maximum (in C1CCOC1): 328 nm | emission maximum (in C1COCCO1): 329 nm | emission maximum (in CC#N): 330 nm | emission maximum (in CC(C)O): 332 nm | emission maximum (in CCO): 334 nm | emission maximum (in CO): 335 nm | emission maximum (in CS(C)=O): 335 nm | emission maximum (in O): 350 nm | emission maximum (in OCC(F)(F)F): 339 nm

Structure (SMILES): [NH3+]C(Cc1ccc(O)c(O)c1)C(=O)[O-] (configuration not stated)
emission maximum (in O): 318 nm

Structure (SMILES): O=C(O)CCCOc1cccc(-c2c3nc(cc4ccc([nH]4)c(-c4cccc(OCCCC(=O)O)c4)c4nc(cc5ccc2[nH]5)CC4)C=C3)c1
emission maximum (in CS(C)=O): 649 nm

Structure (SMILES): COc1ccc2cc(C3=[N+]4C(=Nc5c(-c6ccccc6)cc(-c6ccc7cc(OC)ccc7c6)n5[B-]4(F)F)C(c4ccccc4)=C3Br)ccc2c1
emission maximum (in ClC(Cl)Cl): 728 nm | emission maximum (in ClCCl): 728 nm

Structure (SMILES): Cc1ccc(C)n1-c1ccc(N(C)C)cc1
emission maximum (in CC#N): 360 nm | emission maximum (in CCCCCC): 347 nm

Structure (SMILES): CCc1c(C)c2n(c1C)[B-](F)(F)[N+]1=C(c3ccc[nH]3)c3ccccc3C1=C2
emission maximum (in C1CCOC1): 631 nm | emission maximum (in CC#N): 628 nm | emission maximum (in CCCCCC): 626 nm | emission maximum (in CO): 628 nm | emission maximum (in Cc1ccccc1): 635 nm | emission maximum (in ClCCl): 634 nm

Structure (SMILES): F[B-]1(F)n2c(cc(Br)c2Br)C(c2ccccc2)=C2C=C(Br)C(c3ccc[nH]3)=[N+]21
emission maximum (in ClC(Cl)Cl): 642 nm

Structure (SMILES): O=c1c2ccccc2c2c(C#C[Si](c3ccccc3)(c3ccccc3)c3ccccc3)c3c(=O)c4ccccc4c3c(C#C[Si](c3ccccc3)(c3ccccc3)c3ccccc3)c12
emission maximum (in ClC(Cl)Cl): 570 nm

Structure (SMILES): CCCn1c(=O)c(/C=C/c2nc3ccc(C)cc3n(CCC)c2=O)nc2ccc(C)cc21
emission maximum (in C1COCCO1): 484 nm | emission maximum (in CC#N): 502 nm | emission maximum (in ClCCl): 490 nm

Structure (SMILES): CC1(C)c2ccccc2N(c2ccc3c(ccc4nc5ccc6cc(N7c8ccccc8C(C)(C)c8ccccc87)ccc6c5nc43)c2)c2ccccc21
emission maximum (in C1CCCCC1): 484 nm | emission maximum (in C1CCOC1): 661 nm | emission maximum (in Cc1ccccc1): 552 nm | emission maximum (in ClCCl): 699 nm

Further lines, results first:

emission maximum (in C1CCCCC1): 460 nm | emission maximum (in C1COCCO1): 470 nm | emission maximum (in CC#N): 495 nm | emission maximum (in CN(C)C=O): 515 nm | emission maximum (in ClC(Cl)Cl): 475 nm
Structure (SMILES): N#Cc1c2nc3ccccn3c2nc2c1nc1ccccn12

emission maximum (in ClCCl): 435 nm
Structure (SMILES): CC(C)c1cccc(C(C)C)c1N1C(=O)c2cccc3c(Oc4ccc(C(C)(C)c5ccccc5)cc4)ccc(c23)C1=O

emission maximum (in ClCCl): 448 nm
Structure (SMILES): CCCCn1c(-c2ccc(-c3nnc(-c4cccs4)o3)cc2)nc2c3ccccc3c3ccccc3c21

emission maximum (in ClCCl): 627 nm
Structure (SMILES): CC(C)[Si](C#Cc1c2nc3ccccc3nc2c(C#C[Si](C(C)C)(C(C)C)C(C)C)c2nc3c4ccccc4c(=O)c4ccccc4c3nc12)(C(C)C)C(C)C

emission maximum (in C1CCOC1): 545 nm | emission maximum (in CC#N): 553 nm | emission maximum (in CCO): 552 nm | emission maximum (in CO): 558 nm | emission maximum (in ClCCl): 544 nm
Structure (SMILES): O=C1C2=C(O[B-](F)(F)[n+]3c2ccc2ccccc23)c2ccc(N3CCOCC3)c3cccc1c23

emission maximum (in C1CCCCC1): 396 nm
Structure (SMILES): COc1ccc2c3c(c4ccc(OC)cc4c2c1)C(C)(C)c1c-3ccc2ccccc12

emission maximum (in CC#N): 477 nm
Structure (SMILES): CN(C)c1ccc(-c2nc3nccnc3n2-c2ccccc2)cc1

emission maximum (in ClCCl): 338 nm
Structure (SMILES): Cn1nc(-c2ccccc2)cc1-c1ccccc1

emission maximum (in ClCCl): 495 nm
Structure (SMILES): CCN(CC)c1ccc2cc(-c3nc4cc(C(=O)Nc5ccccc5)ccc4o3)c(=O)oc2c1

emission maximum (in ClCCl): 354 nm
Structure (SMILES): CC1(C)c2ccccc2-c2sc3ccccc3c21

emission maximum (in ClCCl): 584 nm
Structure (SMILES): F[B-]1(F)N(c2ccccc2)c2cccc3ccc4ccc[n+]1c4c23

emission maximum (in ClCCl): 370 nm
Structure (SMILES): Cc1c(C)c2c3ccccc3[nH]c2c2ccccc12

emission maximum (in ClCCl): 416 nm
Structure (SMILES): Cc1cc(-c2nc3c4ccccc4c4ccccc4c3n2-c2ccc(C(C)(C)C)cc2)ccc1-c1ccc(-c2c(-c3ccccc3)nc3ccccn23)cc1

emission maximum (in ClCCl): 538 nm
Structure (SMILES): COc1ccc(C#Cc2c3ccccc3c(C#Cc3ccc(OC)cc3)c3cc4sc(C)cc4cc23)cc1

emission maximum (in ClCCl): 510 nm
Structure (SMILES): Cn1cc(-c2nc3ccccc3nc2C#Cc2ccccc2)c2ccccc21

emission maximum (in CC1CCCCC1): 488 nm | emission maximum (in CC#N): 490 nm
Structure (SMILES): C(=C\c1c2ccccc2cc2ccccc12)/c1ccc2ccccc2c1

emission maximum (in ClCCl): 682 nm
Structure (SMILES): O=c1c2cccc3cccc(c32)c2nc3cccc4cccc(c43)n12
